The subject of series [1] is Eimeria tenella protozoa (sporozoites). The series is described as follows: microbe, parasite or virus in culture. The series is classed as cell-based. An excerpt:
(§1) A certain amount of oocysts (eggs) of Eimeria tenella and Eimeria maxima protozoa (College of Veterinary Medicine, Gyeongsang National University, Korea) were put in a tube containing glass beads and crushed, and then, in order to remove crushed oocyst cell walls and other debris, internal sporocysts were purified using Percoll density gradient, and washed with a PBS solution. For excystation of internal sporozoites, reagents comprising sodium taurocholic acid (sigma aldirich, USA) and trypsin (Ginco, USA), respectively, were treated to Eimeria tenella and Eimeria maxima sporangia and they were incubated, and then washed with PBS (Phosphate-Buffered Saline) solution once and the protozoa were obtained.
Quinic acid (Sigma, Cas No. 77-95-2) at concentrations ranging from 0 to 1000 ppm was reacted with Eimeria tenella oocysts at 40° C. for 3 hours. Following this, only live protozoa (sporozoites) were counted by microscopy. The mortality rate (%) of the protozoa was measured for each substance treatment compared to the negative control group treated with PBS. The results, as shown in FIG. 1 and Table 2, confirmed the anti-coccidial efficacy of quinic acid depending on the concentration.
(§2) Then, the mortality rate (%) was measured when each substance was treated compared to a negative control group to which PBS was treated, and the result is shown in Table 3 below.
After reacting 0.1% (v/v) DMSO, quinic acid, chlorogenic acid, theogallin, and cryptochlorogenic acid, respectively, with Eimeria tenella protozoa at a concentration of 10 ppm at 40° C. for 3 hours, only living protozoa (sporozoites) were counted by microscopy. Then, the mortality rate (%) was measured when each substance was treated compared to a negative control group to which PBS was treated, and the result is shown in Table 5 below.
The Eimeria tenella protozoa were killed by treating the quinic acid or sugarcane extract up to 1000 ppm concentration at maximum, and the minimal treatment concentration showing a mortality rate of 50% or more against Eimeria tenella protozoa was shown in Table 6 below.

Series [2] concerns Eimeria maxima protozoa (sporozoites). The series is described as follows: Direct killing effect against Eimeria maxima protozoa (live sporozoites counted by microscopy). The series is classed as cell-based. The settings on record: 3 h, read-out: Mortality rate of Eimeria maxima orozites [Killed sporozoites %].
Description: as §1, §2

The mark [3] stands for this setting: Eimeria tenella, 3 h, read-out: Mortality rate of Eimeria tenella orozites [Killed sporozoites %].
Where [4] appears, read: Eimeria tenella, 3 h, read-out: Mortality rate of Eimeria tenella sporozites [Killed sporozoites %].
Setting [5] is: Eimeria tenella, each substance treated up to 1000 ppm, minimum concentration with mortality rate of 50% or higher, x not defined (Table 4).
[6] abbreviates: Eimeria tenella, 3 h, read-out: The mortality rate.

These results are taken from patent US20260256721A1, “ANTI-COCCIDIAL COMPOSITION COMPRISING QUINIC ACID AND USES THEREOF” (priority 2023, published 2026).

Broadly, the mortality is the percentage killed.

Structures are written as SMILES. Read-outs that look alike come from different tables or passages of the source.

On to `O=C(O)/C=C/c1ccc(O)c(O)c1` [Caffeic acid, caffeic acid, reference compound], for which the mortality at 10 ppm in series [1] (setting [3]) and in series [2] was 0% in each case.

Regarding `O=C(/C=C/c1ccc(O)c(O)c1)O[C@@H]1C[C@](O)(C(=O)O)C[C@@H](O)[C@H]1O` [Chlorogenic acid, chlorogenic acid, reference compound], the mortality at 10 ppm in series [1] (setting [3]), in series [1] (setting [4]) and in series [2] was 0% throughout. For the same compound, the “Minimum Dose for killed 50% sporozoite” value in series [1] (setting [5]) is listed as 500 ppm.

In the case of `O=C(/C=C/c1ccc(O)c(O)c1)O[C@H]1[C@H](O)C[C@](O)(C(=O)O)C[C@H]1O` [Cryptochlorogenic acid, cryptochlorogenic acid, reference compound], in series [1] (10 ppm, 40° C., 3 hours, compared to PBS negative control (Table 5)), the “Mortality rate of Eimeria tenella sporozites [Killed sporozoites %]” value is on record as 0%.

Consider `COc1cc(/C=C/C(=O)O)ccc1O` [Ferulic acid, ferulic acid, reference compound], for which the mortality at 10 ppm in series [1] (setting [3]) and in series [2] was 0% throughout.

For the compound `O=C(O)[C@]1(O)C[C@@H](O)[C@@H](O)[C@H](O)C1` [Quinic acid, quinic acid], the mortality at 10 ppm in series [1] (setting [3]) came to 32%. Moreover, in series [1] (setting [4]), the mortality at 10 ppm is 32%. In series [1] (setting [6]), the mortality at 0.78 ppm was 7.4%, the mortality at 1.56 ppm was found to be 14.9%, the mortality at 3.125 ppm is 20.2% and the mortality at 6.25 ppm is 25.5%. For the same compound, in series [1] (setting [6]), the mortality at 12.5 ppm is 31.9%, the mortality at 25 ppm turned out to be 35.1%, the mortality at 50 ppm worked out at 55.3% and the mortality at 100 ppm came to 59.6%. For the same compound, in series [1] (setting [6]), the mortality at 250 ppm was 91.5%, the mortality at 500 ppm worked out at 97.9% and the mortality at 1000 ppm was determined as 100%. Moreover, the “Minimum Dose for killed 50% sporozoite” value in series [1] (setting [5]) stood at 50 ppm. The “Minimum Dose for killed 50% sporozoite” value in series [1] (Eimeria tenella, treated up to 1000 ppm at maximum, minimal concentration with mortality rate of 50% or more (Table 6)) is 50 ppm. In addition, the mortality at 10 ppm in series [2] was found to be 34%.

Take `O=C(O)/C=C/c1cccc(O)c1` [m-coumaric acid, reference compound]: the mortality at 10 ppm in series [1] (Eimeria tenella, 10 ppm, 40° C., 3 hours, compared to PBS negative control (Table 3), read-out: Mortality rate of Eimeria tenella orozites [Killed sporozoites %]) is 10.7%; in series [2] it was 6.4%. For the same compound, in series [1] (setting [5]), the “Minimum Dose for killed 50% sporozoite” value was found to be 500 ppm.
